Data published in patent publication US20100061928A1, “LABELLED ANALOGUES OF HALOBENZAMIDES AS RADIOPHARMACEUTICALS” (Institut National De La Sante et De La Recherche Medicale …, priority 2006, published 2010).

What was measured:
[1] = test system: grafted B16 F0 murine melanoma tumour; assay: Biodistribution of the ^125I-labelled molecules in the melanoma-bearing mouse (autoradiography of whole-body sections); details: for Biodistribution, Mean, B 16: B 16 tumour; for tumour concentration, times higher than with BZA: at 72 hours (FIG. 1B); for tumour concentration, % of the injected dose per gram of tumour: from the first hour
tumour = assay: Dosimetry with regard to the tumour (MIRD programme, extrapolated to ^131I); details: for Effective period: extrapolated to 131I labelling; for Biological period: from biodistribution data
[2] = Elimination of the molecules: cumulative urinary and faecal excretion 0-72 hours; format: in vivo, mouse; details: for Faecal elimination 0-72 hours (Faeces) / Urinary and faecal elimination 0-72 hours (Total) / Urinary elimination 0-72 hours (Urine): cumulative excretion 0-72 hours; for Faecal elimination 0-72 hours (Faeces) / Urinary elimination 0-72 hours (Urine): mice in metabolic cages; for Urinary and faecal elimination 0-72 hours (Total): urine + faeces; for elimination route (in words): urinary versus faecal, 0-72 hours; for elimination kinetics from the body (in words): urine and faeces, up to 72 hours
[3] = 1 H after i.v. administration, ^125I-labelled compound
[4] = 3 H after i.v. administration, ^125I-labelled compound
[5] = 6 H after i.v. administration, ^125I-labelled compound
[6] = 24 H after i.v. administration, ^125I-labelled compound
[7] = 72 H after i.v. administration, ^125I-labelled compound

Structure (SMILES): CCN(CC)CCNC(=O)c1cnc2cc(I)ccc2n1.Cl.Cl [compound 46, N-(2-diethylaminoethyl)-6-iodoquinoxaline-2-carboxamide dihydrochloride]
- Biodistribution, Mean, B 16 ([1]; 1 H): 17.00
- Biodistribution, Mean, B 16 ([1]; 3 H): 27.68
- Biodistribution, Mean, B 16 ([1]; 6 H): 40.70
- Biodistribution, Mean, B 16 ([1]; 24 H): 21.67
- Biodistribution, Mean, B 16 ([1]; 72 H): 12.45
- Biodistribution, Mean, BM ([1]; BM, 1 H): 4.58
- Biodistribution, Mean, GB ([1]; GB, 6 H): 33.38
- Biodistribution, Mean, Ic ([1]; 1 H): 15.22
- Biodistribution, Mean, Ic ([1]; 3 H): 14.63
- Biodistribution, Mean, Ic ([1]; 6 H): 17.45
- Biodistribution, Mean, Sc ([1]; 1 H): 24.33
- Biodistribution, Mean, Sc ([1]; 3 H): 20.33
- Biodistribution, Mean, Sc ([1]; 6 H): 21.09
- Biodistribution, Mean, Sc ([1]; 72 H): 2.23
- tumour concentration, times higher than with BZA [1]: 16 times
- Biodistribution, Mean, blood ([1]; 1 H): 3.45
- Biodistribution, Mean, blood ([1]; 3 H): 2.91
- Biodistribution, Mean, blood ([1]; 6 H): 3.09
- Biodistribution, Mean, brain ([1]; 1 H): 2.34
- Biodistribution, Mean, brain ([1]; 3 H): 1.03
- tumour concentration, % of the injected dose per gram of tumour [1]: 17 % ID/g
- Biodistribution, Mean, kidney ([1]; 1 H): 16.46
- Biodistribution, Mean, kidney ([1]; 3 H): 9.30
- Biodistribution, Mean, kidney ([1]; 6 H): 7.69
- Biodistribution, Mean, liver ([1]; 1 H): 13.18
- Biodistribution, Mean, liver ([1]; 3 H): 8.87
- Biodistribution, Mean, liver ([1]; 6 H): 7.53
- Biodistribution, Mean, liver ([1]; 24 H): 1.49
- Biodistribution, Mean, lungs ([1]; 1 H): 7.83
- Biodistribution, Mean, lungs ([1]; 3 H): 5.68
- Biodistribution, Mean, lungs ([1]; 6 H): 4.46
- Biodistribution, Mean, muscle ([1]; 1 H): 2.04
- Biodistribution, Mean, muscle ([1]; 3 H): 0.86
- Biodistribution, Mean, muscle ([1]; 6 H): 0.87
- Biodistribution, Mean, pancreas ([1]; pancreas, 1 H): 7.60
- Biodistribution, Mean, spleen ([1]; 1 H): 14.21
- Biodistribution, Mean, spleen ([1]; 3 H): 4.69
- Biodistribution, Mean, thyroid ([1]; 3 H): 39.76
- Biodistribution, Mean, thyroid ([1]; 6 H): 83.77
- Biodistribution, Mean, thyroid ([1]; 24 H): 94.22
- Biodistribution, Mean, uvea ([1]; 1 H): 33.82
- Biodistribution, Mean, uvea ([1]; 3 H): 24.79
- Biodistribution, Mean, uvea ([1]; 6 H): 32.30
- Biodistribution, Mean, uvea ([1]; 24 H): 32.44
- Biodistribution, Mean, uvea ([1]; 72 H): 25.26
- Effective period (tumour): 49.3 h
- Biological period (tumour): 66.1 hours
- Faecal elimination 0-72 hours (Faeces) [2]: 18.0%
- Urinary and faecal elimination 0-72 hours (Total) [2]: 88.2%
- Urinary elimination 0-72 hours (Urine) [2]: 70.2%
- elimination route (in words) [2]: predominantly in the urine

Structure (SMILES): CCN(CC)CCNC(=O)c1cc2c(I)cccc2s1.Cl [compound 13, N-(2-diethylaminoethyl)-4-iodobenzo[b]thiophene-2-carboxamide hydrochloride]
- Concentration of radioactivity, Ic (intestinal contents), Mean [1, 3]: 71.13 % ID/g
- Concentration of radioactivity, Sc (stomach contents), Mean [1, 3]: 20.00 % ID/g
- Concentration of radioactivity, blood (measured in the heart cavity), Mean [1, 3]: 1.37 % ID/g
- Concentration of radioactivity, brain, Mean [1, 3]: 0.81 % ID/g
- Concentration of radioactivity, kidney, Mean [1, 3]: 5.61 % ID/g
- Concentration of radioactivity, liver, Mean [1, 3]: 2.21 % ID/g
- Concentration of radioactivity, lungs, Mean [1, 3]: 3.69 % ID/g
- Concentration of radioactivity, muscle (skeletal muscle), Mean [1, 3]: 0.77 % ID/g
- Concentration of radioactivity, spleen, Mean [1, 3]: 3.88 % ID/g
- Concentration of radioactivity, thyroid, Mean [1, 3]: 24.03 % ID/g
- Concentration of radioactivity, uvea (pigmented tissues of the eye), Mean [1, 3]: 16.09 % ID/g
- Concentration of radioactivity, B 16 (tumour), Mean [1, 4]: 9.98 % ID/g
- Concentration of radioactivity, GB (gall bladder), Mean [1, 4]: 65.56 % ID/g
- Concentration of radioactivity, Ic (intestinal contents), Mean [1, 4]: 73.02 % ID/g
- Concentration of radioactivity, Sc (stomach contents), Mean [1, 4]: 5.93 % ID/g
- Concentration of radioactivity, liver, Mean [1, 4]: 1.25 % ID/g
- Concentration of radioactivity, thyroid, Mean [1, 4]: 67.21 % ID/g
- Concentration of radioactivity, uvea (pigmented tissues of the eye), Mean [1, 4]: 19.51 % ID/g
- Concentration of radioactivity, B 16 (tumour), Mean [1, 5]: 8.72 % ID/g
- Concentration of radioactivity, Ic (intestinal contents), Mean [1, 5]: 37.70 % ID/g
- Concentration of radioactivity, Sc (stomach contents), Mean [1, 5]: 18.77 % ID/g
- Concentration of radioactivity, thyroid, Mean [1, 5]: 139.12 % ID/g
- Concentration of radioactivity, uvea (pigmented tissues of the eye), Mean [1, 5]: 16.29 % ID/g
- Concentration of radioactivity, B 16 (tumour), Mean [1, 6]: 7.28 % ID/g
- Concentration of radioactivity, thyroid, Mean [1, 6]: 79.82 % ID/g
- Concentration of radioactivity, uvea (pigmented tissues of the eye), Mean [1, 6]: 11.06 % ID/g
- Concentration of radioactivity, B 16 (tumour), Mean [1, 7]: 1.73 % ID/g
- Concentration of radioactivity, uvea (pigmented tissues of the eye), Mean [1, 7]: 9.22 % ID/g
- Effective period (tumour): 23.5 h
- Biological period (tumour): 26.7 hours
- Faecal elimination 0-72 hours (Faeces) [2]: 46.7%
- Urinary and faecal elimination 0-72 hours (Total) [2]: 99.3%
- Urinary elimination 0-72 hours (Urine) [2]: 52.6%
- elimination route (in words) [2]: about equivalent
- elimination kinetics from the body (in words) [2]: complete at 72 hours

Structure (SMILES): CCN(CC)CCNC(=O)c1nc2ccc(I)cc2[nH]1.Cl.Cl [compound 26, N-(2-diethylaminoethyl)-5-iodobenzimidazole-2-carboxamide dihydrochloride]
- Concentration of radioactivity, B 16 (tumour), Mean [1, 3]: 14.78 % ID/g
- Concentration of radioactivity, Ic (intestinal contents), Mean [1, 3]: 105.55 % ID/g
- Concentration of radioactivity, Sc (stomach contents), Mean [1, 3]: 24.46 % ID/g
- Concentration of radioactivity, blood (measured in the heart cavity), Mean [1, 3]: 3.31 % ID/g
- Concentration of radioactivity, kidney, Mean [1, 3]: 6.90 % ID/g
- Concentration of radioactivity, liver, Mean [1, 3]: 13.08 % ID/g
- Concentration of radioactivity, lungs, Mean [1, 3]: 5.16 % ID/g
- Concentration of radioactivity, muscle (skeletal muscle), Mean [1, 3]: 0.55 % ID/g
- Concentration of radioactivity, pancreas, Mean [1, 3]: 6.17 % ID/g
- Concentration of radioactivity, spleen, Mean [1, 3]: 11.51 % ID/g
- Concentration of radioactivity, uvea (pigmented tissues of the eye), Mean [1, 3]: 12.87 % ID/g
- Concentration of radioactivity, B 16 (tumour), Mean [1, 4]: 16.13 % ID/g
- Concentration of radioactivity, GB (gall bladder), Mean [1, 4]: 160.60 % ID/g
- Concentration of radioactivity, Ic (intestinal contents), Mean [1, 4]: 72.05 % ID/g
- Concentration of radioactivity, Sc (stomach contents), Mean [1, 4]: 17.98 % ID/g
- Concentration of radioactivity, blood (measured in the heart cavity), Mean [1, 4]: 1.33 % ID/g
- Concentration of radioactivity, kidney, Mean [1, 4]: 4.57 % ID/g
- Concentration of radioactivity, liver, Mean [1, 4]: 7.15 % ID/g
- Concentration of radioactivity, lungs, Mean [1, 4]: 3.74 % ID/g
- Concentration of radioactivity, thyroid, Mean [1, 4]: 63.44 % ID/g
- Concentration of radioactivity, uvea (pigmented tissues of the eye), Mean [1, 4]: 24.40 % ID/g
- Concentration of radioactivity, B 16 (tumour), Mean [1, 5]: 9.90 % ID/g
- Concentration of radioactivity, GB (gall bladder), Mean [1, 5]: 38.11 % ID/g
- Concentration of radioactivity, Ic (intestinal contents), Mean [1, 5]: 95.86 % ID/g
- Concentration of radioactivity, Sc (stomach contents), Mean [1, 5]: 8.62 % ID/g
- Concentration of radioactivity, liver, Mean [1, 5]: 3.38 % ID/g
- Concentration of radioactivity, spleen, Mean [1, 5]: 14.97 % ID/g
- Concentration of radioactivity, thyroid, Mean [1, 5]: 34.17 % ID/g
- Concentration of radioactivity, uvea (pigmented tissues of the eye), Mean [1, 5]: 10.09 % ID/g
- Concentration of radioactivity, B 16 (tumour), Mean [1, 6]: 7.06 % ID/g
- Concentration of radioactivity, Ic (intestinal contents), Mean [1, 6]: 3.19 % ID/g
- Concentration of radioactivity, Sc (stomach contents), Mean [1, 6]: 2.32 % ID/g
- Concentration of radioactivity, thyroid, Mean [1, 6]: 142.88 % ID/g
- Concentration of radioactivity, uvea (pigmented tissues of the eye), Mean [1, 6]: 10.44 % ID/g
- Concentration of radioactivity, B 16 (tumour), Mean [1, 7]: 4.54 % ID/g
- Concentration of radioactivity, thyroid, Mean [1, 7]: 174.73 % ID/g
- Concentration of radioactivity, uvea (pigmented tissues of the eye), Mean [1, 7]: 7.26 % ID/g
- tumour concentration, times higher than with BZA [1]: 6 times
- tumour concentration, % of the injected dose per gram of tumour [1]: 14.8 % ID/g
- Effective period (tumour): 35.1 h
- Biological period (tumour): 42.9 hours
- Faecal elimination 0-72 hours (Faeces) [2]: 40.7%
- Urinary and faecal elimination 0-72 hours (Total) [2]: 57.8%
- Urinary elimination 0-72 hours (Urine) [2]: 17.1%
- elimination kinetics from the body (in words) [2]: lower elimination
